Results published in patent publication US11168092B2 (priority 2019, dated 2021).
“And” between values parts separate entries of the source, which are not always exact repeats. Equal entries are not always repeated.

Experiments:
Type in all cases: cell-based
Design in all cases: unit not given here
[1] = tested on: skin cancer cells (SK-MEL-2)
lung cancer cells (A549) = tested on: lung cancer cells (A549)
[2] = tested on: ovarian cancer cells (SK-OV-3)
[3] = tested on: colorectal cancer cells (HCT15)

CC1=CC(=O)OCC23CCC(C)(O)C4CC5(O)C(CC(OC(=O)C=CC=CC(C(C)O)OCC1)C52C)OC43 [compound 1, (1R,4Z,6E,8R,12E,16aR,19S,20S,20aR,22R,23S,23aS)-19,23-dihydroxy-8-((R)-1-hydroxyethyl)-12,19,23a-trimethyl-10,11,17,18,19,20,20a,22,23,23a-decahydro-1H-1,22:20,23-dimethano[1,6,12]trioxacyclooctadecino[3,4-d]chromene-3,14(8H,16H)-dione]
Anticancer activity (value at given concentration) [1]: 96.98 and 91.60 and 95.73 and 101.17 and 96.51 and 96.60
Anticancer activity (value at given concentration) (lung cancer cells (A549)): 97.91 and 93.12 and 93.03 and 94.31 and 92.44 and 95.94
Anticancer activity (value at given concentration) [2]: 103.77 and 87.76 and 98.54 and 100.24 and 89.90 and 95.08
Anticancer activity (value at given concentration) [3]: 103.41 and 91.11 and 101.55 and 101.52 and 102.70 and 101.58
